Target: T1, RIP1 (Homo sapiens, UniProt Q13546)
T1 sequence (Q13546 1-671): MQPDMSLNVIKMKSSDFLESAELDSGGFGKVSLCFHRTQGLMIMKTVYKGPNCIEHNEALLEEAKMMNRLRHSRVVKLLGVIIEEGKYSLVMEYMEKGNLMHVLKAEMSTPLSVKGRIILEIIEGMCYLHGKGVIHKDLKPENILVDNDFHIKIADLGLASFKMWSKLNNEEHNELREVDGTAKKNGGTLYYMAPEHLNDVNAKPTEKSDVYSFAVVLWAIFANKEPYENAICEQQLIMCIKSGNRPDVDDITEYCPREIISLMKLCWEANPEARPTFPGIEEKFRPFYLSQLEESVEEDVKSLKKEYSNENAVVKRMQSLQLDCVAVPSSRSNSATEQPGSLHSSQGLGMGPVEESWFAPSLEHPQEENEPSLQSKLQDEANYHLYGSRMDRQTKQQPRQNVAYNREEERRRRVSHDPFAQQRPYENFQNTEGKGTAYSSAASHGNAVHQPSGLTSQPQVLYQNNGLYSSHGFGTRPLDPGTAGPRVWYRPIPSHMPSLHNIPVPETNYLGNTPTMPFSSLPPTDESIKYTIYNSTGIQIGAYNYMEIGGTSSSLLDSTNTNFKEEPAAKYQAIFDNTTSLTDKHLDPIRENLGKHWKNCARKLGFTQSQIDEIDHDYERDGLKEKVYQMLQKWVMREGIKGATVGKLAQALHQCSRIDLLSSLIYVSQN
Assay: Cellular RIP1 inhibitory activity: HT-29 necroptosis (TNFα/SMAC mimetic/zVAD-FMK) CellTiter-Glo viability assay
Assay type: cell-based
Settings: HT-29 cells, TNF-α 10 ng/ml + SMAC mimetic 6 μM + zVAD-FMK 10 μM, 20 hours, geometric mean, read-out: EC50 Values of in vitro Cellular RIP1 Inhibitory Activity

SMILES | EC50 [nM]
CCN(Cc1sc(C)nc1C)C(=O)C1CCN(c2ncc(F)c(-c3c(C)cnn3C)n2)CC1 [Compound 70, 1-(4-(1,4-dimethyl-1H-pyrazol-5-yl)-5-fluoropyrimidin-2-yl)-N-((2,4-dimethylthiazol-5-yl)methyl)-N-ethylpiperidine-4-carboxamide] | 1000 to 10000
Cc1csc(CN(C)C(=O)C2CCN(c3ncc(F)c(-c4c(C)cnn4C)n3)CC2)n1 [Compound 71, 1-(4-(1,4-dimethyl-1H-pyrazol-5-yl)-5-fluoropyrimidin-2-yl)-N-methyl-N-((4-methylthiazol-2-yl)methyl)piperidine-4-carboxamide] | 0.1 to 100
CCN(Cc1nc(C)cs1)C(=O)C1CCN(c2ncc(F)c(-c3c(C)cnn3C)n2)CC1 [Compound 72, 1-(4-(1,4-dimethyl-1H-pyrazol-5-yl)-5-fluoropyrimidin-2-yl)-N-ethyl-N-((4-methylthiazol-2-yl)methyl)piperidine-4-carboxamide] | 0.1 to 100
[2H]C([2H])([2H])N(C(=O)C1CCN(c2nc(-c3c(C)cnn3C)ncc2F)CC1)C([2H])([2H])c1cc(F)cc(F)c1F [Compound 73, 1-(2-(1,4-dimethyl-1H-pyrazol-5-yl)-5-fluoropyrimidin-4-yl)-N-(methyl-d3)-N-((2,3,5-trifluorophenyl)methyl-d2)piperidine-4-carboxamide] | 0.1 to 100
[2H]C([2H])([2H])N(C(=O)C1CCN(c2ncc(F)c(-c3c(C)cnn3C)n2)CC1)C([2H])([2H])c1cc(F)cc(F)c1F [Compound 74, 1-(4-(1,4-dimethyl-1H-pyrazol-5-yl)-5-fluoropyrimidin-2-yl)-N-(methyl-d3)-N-((2,3,5-trifluorophenyl)methyl-d2)piperidine-4-carboxamide] | 0.1 to 100
[2H]C([2H])([2H])N(C(=O)C1CCN(c2ncc(F)c(-c3ncnn3C)n2)CC1)C([2H])([2H])c1cc(F)cc(F)c1F [Compound 75, 1-(5-fluoro-4-(1-methyl-1H-1,2,4-triazol-5-yl)pyrimidin-2-yl)-N-(methyl-d3)-N-((2,3,5-trifluorophenyl)methyl-d2)piperidine-4-carboxamide] | 0.1 to 100
[2H]C([2H])([2H])N(C(=O)C1CCN(c2ncc(F)c(-n3nc(C)nc3C)n2)CC1)C([2H])([2H])c1cc(F)cc(F)c1F [Compound 76, 1-(4-(3,5-dimethyl-1H-1,2,4-triazol-1-yl)-5-fluoropyrimidin-2-yl)-N-(methyl-d3)-N-((2,3,5-trifluorophenyl)methyl-d2)piperidine-4-carboxamide] | 0.1 to 100
[2H]C([2H])([2H])N(Cc1nccs1)C(=O)C1CCN(c2ncc(F)c(-c3c(C)cnn3C)n2)CC1 [Compound 77, 1-(4-(1,4-dimethyl-1H-pyrazol-5-yl)-5-fluoropyrimidin-2-yl)-N-(methyl-d3)-N-(thiazol-2-ylmethyl)piperidine-4-carboxamide] | 0.1 to 100
[2H]C([2H])([2H])N(Cc1nc(C)cs1)C(=O)C1CCN(c2ncc(F)c(-c3c(C)cnn3C)n2)CC1 [Compound 78, 1-(4-(1,4-dimethyl-1H-pyrazol-5-yl)-5-fluoropyrimidin-2-yl)-N-(methyl-d3)-N-((4-methylthiazol-2-yl)methyl)piperidine-4-carboxamide] | 0.1 to 100
Cc1cnn(C)c1-c1nc(N2CCC(C(=O)N(C)Cc3cc(C)n(C)n3)CC2)ncc1F [Compound 79, N-((1,5-dimethyl-1H-pyrazol-3-yl)methyl)-1-(4-(1,4-dimethyl-1H-pyrazol-5-yl)-5-fluoropyrimidin-2-yl)-N-methylpiperidine-4-carboxamide] | 100 to 1000
CCN(Cc1cc(C)n(C)n1)C(=O)C1CCN(c2ncc(F)c(-c3c(C)cnn3C)n2)CC1 [Compound 80, N-((1,5-dimethyl-1H-pyrazol-3-yl)methyl)-1-(4-(1,4-dimethyl-1H-pyrazol-5-yl)-5-fluoropyrimidin-2-yl)-N-ethylpiperidine-4-carboxamide] | 100 to 1000
Cc1cnn(C)c1-c1nc(N2CCC(C(=O)N(C)Cc3ccn(C)n3)CC2)ncc1F [Compound 81, 1-(4-(1,4-dimethyl-1H-pyrazol-5-yl)-5-fluoropyrimidin-2-yl)-N-methyl-N-((1-methyl-1H-pyrazol-3-yl)methyl)piperidine-4-carboxamide] | 0.1 to 100
CCN(Cc1ccn(C)n1)C(=O)C1CCN(c2ncc(F)c(-c3c(C)cnn3C)n2)CC1 [Compound 82, 1-(4-(1,4-dimethyl-1H-pyrazol-5-yl)-5-fluoropyrimidin-2-yl)-N-ethyl-N-((1-methyl-1H-pyrazol-3-yl)methyl)piperidine-4-carboxamide] | 0.1 to 100
Cc1cnn(C)c1-c1nc(N2CCC(C(=O)N(C)Cc3cnn(C)c3)CC2)ncc1F [Compound 83, 1-(4-(1,4-dimethyl-1H-pyrazol-5-yl)-5-fluoropyrimidin-2-yl)-N-methyl-N-((1-methyl-1H-pyrazol-4-yl)methyl)piperidine-4-carboxamide] | 100 to 1000
CCN(Cc1cnn(C)c1)C(=O)C1CCN(c2ncc(F)c(-c3c(C)cnn3C)n2)CC1 [Compound 84, 1-(4-(1,4-dimethyl-1H-pyrazol-5-yl)-5-fluoropyrimidin-2-yl)-N-ethyl-N-((1-methyl-1H-pyrazol-4-yl)methyl)piperidine-4-carboxamide] | 100 to 1000
Cc1cnn(C)c1-c1nc(N2CCC(C(=O)N(C)Cc3cc(F)cc(F)c3)CC2)ncc1F [Compound 85, N-(3,5-difluorobenzyl)-1-(4-(1,4-dimethyl-1H-pyrazol-5-yl)-5-fluoropyrimidin-2-yl)-N-methylpiperidine-4-carboxamide] | 0.1 to 100
Cc1cnn(C)c1-c1cc(N2CCC(C(=O)N(C)Cc3nccs3)CC2)c(F)cn1 [Compound 86, 1-(2-(1,4-dimethyl-1H-pyrazol-5-yl)-5-fluoropyridin-4-yl)-N-methyl-N-(thiazol-2-ylmethyl)piperidine-4-carboxamide] | 0.1 to 100
Cc1nnc(CN(C)C(=O)C2CCN(c3ncc(F)c(-c4c(C)cnn4C)n3)CC2)s1 [Compound 87, 1-(4-(1,4-dimethyl-1H-pyrazol-5-yl)-5-fluoropyrimidin-2-yl)-N-methyl-N-((5-methyl-1,3,4-thiadiazol-2-yl)methyl)piperidine-4-carboxamide] | 100 to 1000
Cc1cnn(C)c1-c1cc(N2CCC(C(=O)N(C)Cc3cc(F)cc(F)c3)CC2)ncn1 [Compound 88, N-(3,5-difluorobenzyl)-1-(6-(1,4-dimethyl-1H-pyrazol-5-yl)pyrimidin-4-yl)-N-methylpiperidine-4-carboxamide] | 0.1 to 100
CCN(Cc1cc(F)cc(F)c1)C(=O)C1CCN(c2cc(-c3c(C)cnn3C)ncn2)CC1 [Compound 89, N-(3,5-difluorobenzyl)-1-(6-(1,4-dimethyl-1H-pyrazol-5-yl)pyrimidin-4-yl)-N-ethylpiperidine-4-carboxamide] | 100 to 1000
Cc1cnn(C)c1-c1nc(N2CCC(C(=O)N(C)Cc3nc(C)c(C)s3)CC2)ncc1F [Compound 90, 1-(4-(1,4-dimethyl-1H-pyrazol-5-yl)-5-fluoropyrimidin-2-yl)-N-((4,5-dimethylthiazol-2-yl)methyl)-N-methylpiperidine-4-carboxamide] | 0.1 to 100
Cc1ncc(CN(C)C(=O)C2CCN(c3ncc(F)c(-c4c(C)cnn4C)n3)CC2)s1 [Compound 91, 1-(4-(1,4-dimethyl-1H-pyrazol-5-yl)-5-fluoropyrimidin-2-yl)-N-methyl-N-((2-methylthiazol-5-yl)methyl)piperidine-4-carboxamide] | 0.1 to 100
Cc1nc(CN(C)C(=O)C2CCN(c3ncc(F)c(-c4c(C)cnn4C)n3)CC2)c(C)s1 [Compound 92] | 100 to 1000
Cc1cnn(C)c1-c1nc(N2CCC(C(=O)N(C)Cc3cscn3)CC2)ncc1F [Compound 93, 1-(4-(1,4-dimethyl-1H-pyrazol-5-yl)-5-fluoropyrimidin-2-yl)-N-methyl-N-(thiazol-4-ylmethyl) piperidine-4-carboxamide] | 0.1 to 100
CCN(Cc1cscn1)C(=O)C1CCN(c2ncc(F)c(-c3c(C)cnn3C)n2)CC1 [Compound 94, 1-(4-(1,4-dimethyl-1H-pyrazol-5-yl)-5-fluoropyrimidin-2-yl)-N-ethyl-N-(thiazol-4-ylmethyl) piperidine-4-carboxamide] | 0.1 to 100
Cc1cnn(C)c1-c1nc(N2CCC(C(=O)N(C)Cc3nccs3)CC2)ncc1F [Compound 95, 1-(4-(1,4-dimethyl-1H-pyrazol-5-yl)-5-fluoropyrimidin-2-yl)-N-methyl-N-(thiazol-2-ylmethyl)piperidine-4-carboxamide] | 0.1 to 100
CCN(Cc1nccs1)C(=O)C1CCN(c2ncc(F)c(-c3c(C)cnn3C)n2)CC1 [Compound 96, 1-(4-(1,4-dimethyl-1H-pyrazol-5-yl)-5-fluoropyrimidin-2-yl)-N-ethyl-N-(thiazol-2-ylmethyl)piperidine-4-carboxamide] | 0.1 to 100
[2H]C([2H])([2H])N(C(=O)C1CCN(c2ncc(F)c(-c3nnc(C)s3)n2)CC1)C([2H])([2H])c1cc(F)cc(F)c1F [Compound 97, 1-(5-fluoro-4-(5-methyl-1,3,4-thiadiazol-2-yl)pyrimidin-2-yl)-N-(methyl-d3)-N-((2,3,5-trifluorophenyl)methyl-d2)piperidine-4-carboxamide] | 0.1 to 100

Reference: patent publication US20240217963A1, “RECEPTOR-INTERACTING PROTEIN 1 INHIBITORS, PREPARATIONS, AND USES THEREOF” (SIRONAX LTD., priority 2021, published 2024)
